Test results: patent publication US20070010429A1, “Phospholipid formulations and uses thereof in lung disease detection and treatment” (The Hospital For Sick Children, priority 2005, published 2007)
Read-outs that look alike come from different tables or passages of the source.

Key:
[1] = freeze fracture analysis; cited from earlier work
neonatal rats [2] = conditions: treated rats; day 10 control rats 9.0±0.4 microns
Protocol: BALF samples, containing 50 nM of PC, were extracted and lipids were dried under nitrogen. Lipid samples were then reconstituted in 1 ml of saline at 37° C. followed by bath sonication. Following one freeze-thaw cycle the vesicle size was determined by dynamic light scattering (21) using a Malvern Mastersizer X (Malvern Instruments Ltd., Worcestershire, United Kingdom).
To even further characterize this relationship, light scattering analysis was performed on liposomes formed from total lipids extracted from BALF.

neonatal rats [3] = test system: neonatal rats
Source text: Timed-pregnant female Wistar rats and C57/B16 mice were obtained from Charles River (St. Constant, Qc, Canada). All animal protocols were in accordance with Canadian Counsel of Animal Care guidelines and were approved by the Animal Care and Use Committee of the Hospital for Sick Children. Developmental profile: At fetal day 19 and 22 (term=23 days) the pregnant rat was anesthetized and the pups delivered by cesarean section, while postpartum rodents were removed from their mother directly before sacrifice. Dexamethasone treatment: Newborn Wistar rats were injected daily for 4 days with dexamethasone (Sabex, Boucherville, Quebec, Canada) diluted in isotonic saline starting at postnatal day 1 according to previously described protocols (17). Hyperoxia exposure: The oxygen treatment was performed by housing the rat pups with their mother in chambers containing either 21% or 60% oxygen, starting at day 1 until day of lavage (i.e. postnatal day 4, 7, 10 or 14) (18).
After sacrificing the animals, a needle (blunted tip) was inserted through a tracheostomy and the lungs were lavaged with a buffer composed of phosphate-buffered saline augmented with 0.05 mg/ml of 70 kDa dextran-FITC [Molecular probes, Burlington, ON, Canada]. The inert fluorescent marker was included to determine lavage recovery (see FIG. 4e).
BALF samples were spiked with 1 μg of deuterated dipalmitoyl-PC (16:0/16:0PC) (Avanti polar lipids, Alabaster Ala., USA) as an internal standard, and then extracted (19). Lipids were analyzed using an API4000 mass spectrometer [MDS SCIEX, Concord, Ontario, Canada) (20).
To determine the nature of this relationship, BALF samples were examined from two rat models of diminished alveolarization. The two models employed were postnatal exposure to either dexamethasone or 60% oxygen. Postnatal administration of dexamethasone to rats has been described to result in a reduced alveolarization (17, 39-41). In the present study, a high dose, short-term treatment with dexamethasone was used to induce reduced alveolarization in the animal.
Neonatal hyperoxia of mice and rats may also be used to induce diminished alveolarization (18, 42-44).

newborn Wistar rats = conditions: high dose, short-term dexamethasone, age of 14 days; cited from earlier work

Row | Compound | liposome radius compared to palmitoylmyristoyl-PC (16:0/14:0PC) liposomes [1] | average particle size of liposomes formed from BALF lipids (neonatal rats [2]) | total PC in BALF (neonatal rats [3]; 60% oxygen from day 1, postnatal day 10) | total PC in BALF (neonatal rats [3]; 60% oxygen from day 1, postnatal day 14) | palmitoylmyristoyl-PC (16:0/14:0PC) in BALF (neonatal rats [3]; after 14 days of 60% oxygen exposure, only PC species reduced) | dipalmitoyl-PC (16:0/16:0PC) content in BALF (neonatal rats [3]; rats exposed to 60% oxygen) | palmitoylmyristoyl-PC (16:0/14:0PC) content in BALF (neonatal rats [3]; rats exposed to 60% oxygen) | palmitoylpalmitoleoyl-PC (16:0/16:1PC) content in BALF (neonatal rats [3]; rats exposed to 60% oxygen) | parenchymal complexity / lung alveoli compared to controls (newborn Wistar rats)
1 | CCCCCCCCCCCCCCCC(=O)OC[C@H](COP(=O)([O-])OCC[N+](C)(C)C)OC(=O)CCCCCCCCCCCCCCC [16:0/16:0, Dipalmitoyl Phosphatidylcholine] | three-fold greater radius |  |  |  |  |  |  |  | 
2 | O=O [60% oxygen, oxygen] |  | 12.6±0.6 microns | significant reduction | no longer significantly different | significantly reduced | reduced | reduced | reduced | 
3 | C[C@@H]1C[C@H]2[C@@H]3CCC4=CC(=O)C=C[C@]4(C)[C@@]3(F)[C@@H](O)C[C@]2(C)[C@@]1(O)C(=O)CO [dexamethasone, reference compound] |  | 13.2±0.7 microns |  |  |  |  |  |  | significant decrease in parenchymal complexity
